# Like-named read-outs stand apart in the source and are kept apart here.
# Experiments:
# [1] = system: poultry and ruminants; conditions: background, known; cited from earlier work
# [2] = system: muscle fiber; conditions: background, known; cited from earlier work
# [3] = reported in U.S. Pat. Nos. 3,235,573 and 3,449,381; cited from earlier work
# [4] = system: poultry and ruminants; experiment: Growth promotion in animals; type: in vivo; conditions: applicant's findings
# [5] = system: muscle fiber; experiment: Masculinizing effect on the muscle fiber; type: in vivo; conditions: applicant's findings
# [6] = target: T1, androgen receptor (Rattus norvegicus, UniProt P15207); experiment: Androgen binding: competitive binding with 3H-testosterone labeled cytosol receptor sites, rat prostate cytosol
# T1 construct: male rats were castrated and the prostate cytosol was prepared; from tissue; host or cells: prostate cytosol of castrated male rats, prepared 24 to 48 hours after surgery
# T1 sequence (P15207 1-902): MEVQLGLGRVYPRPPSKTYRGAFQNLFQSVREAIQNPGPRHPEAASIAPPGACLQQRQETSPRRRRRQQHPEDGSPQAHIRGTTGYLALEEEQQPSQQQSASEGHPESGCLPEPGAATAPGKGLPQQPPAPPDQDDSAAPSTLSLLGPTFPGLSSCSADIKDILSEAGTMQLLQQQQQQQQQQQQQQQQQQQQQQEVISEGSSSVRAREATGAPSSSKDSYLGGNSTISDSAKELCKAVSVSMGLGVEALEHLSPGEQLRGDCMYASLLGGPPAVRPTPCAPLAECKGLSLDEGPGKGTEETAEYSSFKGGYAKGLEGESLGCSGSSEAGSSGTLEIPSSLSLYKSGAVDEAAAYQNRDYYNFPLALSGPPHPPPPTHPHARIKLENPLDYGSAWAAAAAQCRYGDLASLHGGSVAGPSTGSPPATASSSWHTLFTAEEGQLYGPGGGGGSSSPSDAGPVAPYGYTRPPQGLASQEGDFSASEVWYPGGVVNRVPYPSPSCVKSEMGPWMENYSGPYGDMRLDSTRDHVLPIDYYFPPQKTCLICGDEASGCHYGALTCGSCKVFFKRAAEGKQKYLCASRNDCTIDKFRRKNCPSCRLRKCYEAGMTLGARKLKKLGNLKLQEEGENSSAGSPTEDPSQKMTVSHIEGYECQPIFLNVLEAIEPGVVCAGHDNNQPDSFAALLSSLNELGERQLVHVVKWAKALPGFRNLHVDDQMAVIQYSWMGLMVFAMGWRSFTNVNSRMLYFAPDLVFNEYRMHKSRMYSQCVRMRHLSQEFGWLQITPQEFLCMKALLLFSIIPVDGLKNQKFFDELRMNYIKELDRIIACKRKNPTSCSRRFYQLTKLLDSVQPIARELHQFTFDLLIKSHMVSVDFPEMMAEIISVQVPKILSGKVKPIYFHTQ
# Description: This binding is the first step necessary for hormonal action.
# [7] = system: ten day old leghorn chicks; experiment: Chick weight gain, subcutaneous treatment for six days; type: in vivo; conditions: for Weight Gain (g ± S.E.M.): gain during one week, control 52.7 ± 1.6, * significantly different from controls, p <- 0.05
structure (smiles),measurement,setting,value
CCC(=O)O[C@H]1CC[C@H]2[C@@H]3CCC4=CC(=O)CC[C@]4(C)[C@H]3CC[C@]12C [testosterone propionate],growth promotion,[1],effective in promoting growth in animals
same,masculinization of the muscle fiber,[2],masculinization of the muscle fiber
C[C@]12CC[C@H]3[C@@H](CCC4=CC(=O)CC[C@@]43C=O)[C@@H]1CC[C@@H]2O [3-oxo-17β-hydroxyandrost-4-en-19-al],anabolic-androgenic activity,[3],anabolic-androgenic activity
same,growth promotion,[4],effective in growth promotion in animals
same,masculinizing effect on the muscle fiber,[5],without any masculinizing effect on the muscle fiber
CSCCC(O)C(=O)O (stereo not drawn) [α-hydroxy-γ-methylmercaptobutyric acid],growth promotion,[1],promote growth by improving feed efficiency
"C[C@]12CC[C@H]3[C@@H](CCC4=CC(=O)CC[C@@]43C=O)[C@@H]1CCC2=O [3,17-Dioxoandrost-4-en-19-al, 3,17-dioxoandrost-4-en-19-al]",androgen receptor binding,"[6]; in vitro, androgen target tissue",lack of androgen binding affinity
same,"% Binding (androgen binding, relative)","[6]; relative to 5α-dihydrotestosterone equated to 100, 4 × 10^-6 to 4 × 10^-10 molar, castrated male rat prostate cytosol",0.07%
same,Weight Gain (g ± S.E.M.),[7]; 1 mg/kg/day subcutaneously for six days,58.8 ± 1.4 g
same,Weight Gain (g ± S.E.M.),[7]; 10 mg/kg/day subcutaneously for six days,63.0 ± 1.1 g
same,Weight Gain (g ± S.E.M.),[7]; 30 mg/kg/day subcutaneously for six days,74.0 ± 2.6 g
same,growth rate as measured by weight gain,"[7]; 1.0, 10 and 30 mg/kg/day s.c. six days, compared to untreated control chicks",significant increase in growth rate
